Patent US9603896B2, “Peptide compounds and methods of production and use thereof” (priority 2012, dated 2017)

System: cytokines in mouse cornea
Test: Cytokines in corneal lysates after intrastromal injection (MILLIPLEX MAP mouse cytokine assay)
Assay type: in vivo
Details: intrastromal 0.5 μl, 10^−4, 10^−5, 10^−6 M; 24 and 48 hours
Procedure: Corneas were injected intrastromally with 0.5 μl of peptide 95-122 at a final concentration of 10^−4 M, 10^−5 M, and 10^−6 M and vehicle (saline) control. Corneas were collected and flash frozen at 24 hours and 48 hours. Corneal lysates were analyzed for cytokines using the MILLIPLEX® MAP mouse cytokine assay for IL-7(A), IL-15 (B), IFN-γ (C), MIP1-α (D) (EMD Millipore Corp., Billerica, Mass.). The means of independent experimental values are shown ±SEM. ***P<0.001, **P<0.01, *P<0.05 by unpaired t-test as compared to vehicle treated controls. […] Corneas were injected intrastromally with 0.5 μl of peptide 95-122 at a final concentration of 10^−4 M, 10^−5 M, and 10^−6 M and vehicle (saline) control. Corneas were collected and flash frozen at 24 hours and 48 hours. Corneal lysates were analyzed for cytokines using the MILLIPLEX® MAP mouse cytokine assay for MIP1-β (EMD Millipore Corp., Billerica, Mass.). **P<0.01, *P<0.05 by unpaired t-test as compared to vehicle treated controls. […] Corneas were injected intrastromally with 0.5 μl of peptide 95-122 at a final concentration of 10^−4 M, 10^−5 M, and 10^−6 M and vehicle (saline) control. Corneas were collected and flash frozen at 24 hours and 48 hours. Corneal lysates were analyzed for cytokines using the MILLIPLEX® MAP mouse cytokine assay for KC (A), IL-1β (B), and GM-CSF (C) (EMD Millipore Corp., Billerica, Mass.). **P<0.01, *P<0.05 by unpaired t-test as compared to vehicle treated controls.

LDREANLTSSVTILPLPLQNATVEAGTR (listed as Homo sapiens) [Peptide 95-122]
significantly increases: GM-CSF in corneal lysates | IFN-γ in corneal lysates | IL-1β in corneal lysates | IL-7 in corneal lysates | IL-15 in corneal lysates | KC in corneal lysates | MIP1-13 in corneal lysates | MIP1-α in corneal lysates
